Measured values reported in ChEMBL document CHEMBL3272121, “Hypolipidemic analogues of ethyl 4-benzyloxybenzoate” (J Med Chem, 1977).

Assays:
Liver [1] = assay: Inhibition of cholesterol biosynthesis from [1-14C]acetate in rat liver slices at 1 X 10^-3 M relative to control; format: functional
Liver [2] = assay: Inhibition of fatty acid biosynthesis from [1-14C]acetate in rat liver slices at 1 X 10^-3 M relative to control; format: functional
Rattus norvegicus [3] = assay: Hypolipidemic activity in CFY Sprague-Dawley rat assessed as serum cholesterol level at 0.25% dietary level administered for 7 days relative to control; format: functional
Rattus norvegicus [4] = assay: Hypolipidemic activity in CFY Sprague-Dawley rat assessed as serum triglyceride level at 0.25% dietary level administered for 7 days relative to control; format: functional
Rattus norvegicus [5] = assay: Toxicity in CFY Sprague-Dawley rat assessed as body weight gain at 0.25% dietary level administered for 7 days relative to control; format: organism-based; conditions: in vivo, po, 168 h
Rattus norvegicus [6] = assay: Toxicity in CFY Sprague-Dawley rat assessed as relative liver weight at 0.25% dietary level administered for 7 days relative to control; format: organism-based; conditions: in vivo, po, 168 h
Rattus norvegicus [7] = assay: Hypolipidemic activity in CFY Sprague-Dawley rat assessed as liver lipid per gm of liver at 0.25% dietary level administered for 7 days relative to control; format: functional
Rattus norvegicus [8] = assay: Hypolipidemic activity in CFY Sprague-Dawley rat assessed as serum cholesterol level at 0.1% dietary level administered for 7 days relative to control; format: functional
Rattus norvegicus [9] = assay: Hypolipidemic activity in CFY Sprague-Dawley rat assessed as serum cholesterol level at 0.2% dietary level administered for 7 days relative to control; format: functional
Rattus norvegicus [10] = assay: Hypolipidemic activity in CFY Sprague-Dawley rat assessed as serum cholesterol level at 0.5% dietary level administered for 7 days relative to control; format: functional
Rattus norvegicus [11] = assay: Hypolipidemic activity in CFY Sprague-Dawley rat assessed as serum cholesterol level at 1% dietary level administered for 7 days relative to control; format: functional
Rattus norvegicus [12] = assay: Hypolipidemic activity in CFY Sprague-Dawley rat assessed as serum triglyceride level at 0.1% dietary level administered for 7 days relative to control; format: functional
Rattus norvegicus [13] = assay: Hypolipidemic activity in CFY Sprague-Dawley rat assessed as serum triglyceride level at 0.2% dietary level administered for 7 days relative to control; format: functional
Rattus norvegicus [14] = assay: Hypolipidemic activity in CFY Sprague-Dawley rat assessed as serum triglyceride level at 0.5% dietary level administered for 7 days relative to control; format: functional
Rattus norvegicus [15] = assay: Hypolipidemic activity in CFY Sprague-Dawley rat assessed as serum triglyceride level at 1% dietary level administered for 7 days relative to control; format: functional
Rattus norvegicus [16] = assay: Toxicity in CFY Sprague-Dawley rat assessed as body weight gain at 0.1% dietary level administered for 7 days relative to control; format: organism-based; conditions: in vivo, po, 168 h
Rattus norvegicus [17] = assay: Toxicity in CFY Sprague-Dawley rat assessed as body weight gain at 0.2% dietary level administered for 7 days relative to control; format: organism-based; conditions: in vivo, po, 168 h
Rattus norvegicus [18] = assay: Toxicity in CFY Sprague-Dawley rat assessed as body weight gain at 0.5% dietary level administered for 7 days relative to control; format: organism-based; conditions: in vivo, po, 168 h
Rattus norvegicus [19] = assay: Toxicity in CFY Sprague-Dawley rat assessed as body weight gain at 1% dietary level administered for 7 days relative to control; format: organism-based; conditions: in vivo, po, 168 h
Rattus norvegicus [20] = assay: Toxicity in CFY Sprague-Dawley rat assessed as relative liver weight at 0.1% dietary level administered for 7 days relative to control; format: organism-based; conditions: in vivo, po, 168 h
Rattus norvegicus [21] = assay: Toxicity in CFY Sprague-Dawley rat assessed as relative liver weight at 0.2% dietary level administered for 7 days relative to control; format: organism-based; conditions: in vivo, po, 168 h
Rattus norvegicus [22] = assay: Toxicity in CFY Sprague-Dawley rat assessed as relative liver weight at 0.5% dietary level administered for 7 days relative to control; format: organism-based; conditions: in vivo, po, 168 h
Rattus norvegicus [23] = assay: Toxicity in CFY Sprague-Dawley rat assessed as relative liver weight at 1% dietary level administered for 7 days relative to control; format: organism-based; conditions: in vivo, po, 168 h
Rattus norvegicus [24] = assay: Hypolipidemic activity in CFY Sprague-Dawley rat assessed as liver lipid per gm of liver at 0.1% dietary level administered for 7 days relative to control; format: functional
Rattus norvegicus [25] = assay: Hypolipidemic activity in CFY Sprague-Dawley rat assessed as liver lipid per gm of liver at 0.2% dietary level administered for 7 days relative to control; format: functional
Rattus norvegicus [26] = assay: Hypolipidemic activity in CFY Sprague-Dawley rat assessed as liver lipid per gm of liver at 0.5% dietary level administered for 7 days relative to control; format: functional
Rattus norvegicus [27] = assay: Hypolipidemic activity in CFY Sprague-Dawley rat assessed as liver lipid per gm of liver at 1% dietary level administered for 7 days relative to control; format: functional
Liver [28] = assay: Inhibition of cholesterol biosynthesis from [1-14C]acetate in rat liver slices at […] relative to control; format: functional
Liver [29] = assay: Inhibition of cholesterol biosynthesis from [1-14C]acetate in rat liver slices at 1 X 10^-4 M relative to control; format: functional
Liver [30] = assay: Inhibition of fatty acid biosynthesis from [1-14C]acetate in rat liver slices at 5 X 10^-4 M relative to control; format: functional
Liver [31] = assay: Inhibition of fatty acid biosynthesis from [1-14C]acetate in rat liver slices at 1 X 10^-4 M relative to control; format: functional

Compound | Activity (Rattus norvegicus [3]) | Activity (Rattus norvegicus [4]) | Activity (Rattus norvegicus [5]) | Activity (Rattus norvegicus [6]) | Activity (Rattus norvegicus [7]) | Activity (Rattus norvegicus [8]) | Activity (Rattus norvegicus [10]) | Activity (Rattus norvegicus [12]) | Activity (Rattus norvegicus [14]) | Activity (Rattus norvegicus [16]) | Activity (Rattus norvegicus [18]) | Activity (Rattus norvegicus [20]) | Activity (Rattus norvegicus [22]) | Activity (Rattus norvegicus [24]) | Activity (Rattus norvegicus [26]) | inhibition at 100 µM (Liver [29]) | inhibition at 100 µM (Liver [31]) | further results
CCC(C(=O)O)c1ccccc1 (stereo not drawn) |  |  |  |  |  |  |  |  |  |  |  |  |  |  |  |  |  | inhibition at 1000 µM (Liver [1]): 30%; inhibition at 1000 µM (Liver [2]): 7%
CCOC(=O)c1ccc(OCc2ccccc2)cc1 | -17% | -61% | 1% | 8% | 2% | -9% | -18% | -14% | -41% | 6% | -40% | 9% | 22% | 0% | 10% | 42% | -7% | Activity (Rattus norvegicus [9]): -20%; Activity (Rattus norvegicus [11]): -20%; Activity (Rattus norvegicus [13]): -67%; Activity (Rattus norvegicus [15]): -29%; Activity (Rattus norvegicus [17]): -8%; Activity (Rattus norvegicus [19]): -45%; Activity (Rattus norvegicus [21]): 8%; Activity (Rattus norvegicus [23]): 37%; Activity (Rattus norvegicus [25]): -3%; Activity (Rattus norvegicus [27]): 9%; inhibition at 500 µM (Liver [28]): 68%; inhibition at 500 µM (Liver [30]): 91%
CCOC(=O)Cc1ccc(OCc2ccc(C)cc2)cc1 | -45% | -68% | -18% | 20% | 5% | -8% |  | -49% |  | 16% |  | 9% |  | 0% |  |  |  | 
CCOC(=O)CCc1ccc(OCc2ccc(F)cc2)cc1 | -20% | -43% | -1% | -5% | 7% |  | -19% |  | -59% |  | 4% |  | 15% |  | 8% | 87% | 82% | 
